This passage reports IC50 results from patent US20240109917A1 (ACTELION PHARMACEUTICALS LTD, priority 2020, published 2024).

The target in experiment [1] is Tb-labeled inactive PDGFRβ (Homo sapiens (Human), UniProt P09619). Put plainly: PDGFRβ LanthaScreen Assay. It counts as binding. Particulars: read-out: PDGFR Lantha IC50.
The next experiment has as its target VEGFR2, unphosphorylated (Homo sapiens (Human), UniProt P35968). Kind of experiment: VEGFR ADP GLO Assay. It counts as biochemical. (In general: In ADP-Glo the light output rises with the ADP produced.)

Bounds are passed on as bounds.

Tb-labeled inactive PDGFRβ, sequence (P09619 33-1106): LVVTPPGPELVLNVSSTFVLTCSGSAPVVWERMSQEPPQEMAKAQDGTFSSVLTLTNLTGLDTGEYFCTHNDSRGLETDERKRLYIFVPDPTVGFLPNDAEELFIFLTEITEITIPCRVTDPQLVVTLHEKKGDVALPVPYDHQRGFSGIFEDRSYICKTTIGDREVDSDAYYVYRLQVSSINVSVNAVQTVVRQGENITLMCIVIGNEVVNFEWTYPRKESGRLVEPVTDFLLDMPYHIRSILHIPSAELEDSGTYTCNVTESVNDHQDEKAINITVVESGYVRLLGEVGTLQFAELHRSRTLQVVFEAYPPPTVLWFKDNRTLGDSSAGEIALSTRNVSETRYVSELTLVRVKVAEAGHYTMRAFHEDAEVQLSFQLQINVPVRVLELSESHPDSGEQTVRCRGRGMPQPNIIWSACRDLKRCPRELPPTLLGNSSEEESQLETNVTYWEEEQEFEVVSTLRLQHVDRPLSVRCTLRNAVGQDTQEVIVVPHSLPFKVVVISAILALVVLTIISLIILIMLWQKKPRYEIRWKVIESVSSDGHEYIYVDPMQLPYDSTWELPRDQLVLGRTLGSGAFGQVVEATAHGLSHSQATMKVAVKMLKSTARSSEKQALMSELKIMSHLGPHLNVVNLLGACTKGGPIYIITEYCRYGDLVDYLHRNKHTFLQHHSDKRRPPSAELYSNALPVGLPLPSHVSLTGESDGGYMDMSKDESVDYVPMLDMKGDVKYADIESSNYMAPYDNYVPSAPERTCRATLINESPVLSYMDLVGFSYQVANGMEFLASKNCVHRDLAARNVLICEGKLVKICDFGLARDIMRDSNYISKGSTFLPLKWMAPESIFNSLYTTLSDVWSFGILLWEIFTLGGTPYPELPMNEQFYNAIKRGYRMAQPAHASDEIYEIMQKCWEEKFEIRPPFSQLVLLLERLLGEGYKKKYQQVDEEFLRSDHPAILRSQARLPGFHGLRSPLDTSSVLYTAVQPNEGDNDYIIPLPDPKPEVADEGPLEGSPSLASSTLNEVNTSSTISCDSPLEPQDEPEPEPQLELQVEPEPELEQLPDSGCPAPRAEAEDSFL
VEGFR2, unphosphorylated, sequence (P35968 20-1356): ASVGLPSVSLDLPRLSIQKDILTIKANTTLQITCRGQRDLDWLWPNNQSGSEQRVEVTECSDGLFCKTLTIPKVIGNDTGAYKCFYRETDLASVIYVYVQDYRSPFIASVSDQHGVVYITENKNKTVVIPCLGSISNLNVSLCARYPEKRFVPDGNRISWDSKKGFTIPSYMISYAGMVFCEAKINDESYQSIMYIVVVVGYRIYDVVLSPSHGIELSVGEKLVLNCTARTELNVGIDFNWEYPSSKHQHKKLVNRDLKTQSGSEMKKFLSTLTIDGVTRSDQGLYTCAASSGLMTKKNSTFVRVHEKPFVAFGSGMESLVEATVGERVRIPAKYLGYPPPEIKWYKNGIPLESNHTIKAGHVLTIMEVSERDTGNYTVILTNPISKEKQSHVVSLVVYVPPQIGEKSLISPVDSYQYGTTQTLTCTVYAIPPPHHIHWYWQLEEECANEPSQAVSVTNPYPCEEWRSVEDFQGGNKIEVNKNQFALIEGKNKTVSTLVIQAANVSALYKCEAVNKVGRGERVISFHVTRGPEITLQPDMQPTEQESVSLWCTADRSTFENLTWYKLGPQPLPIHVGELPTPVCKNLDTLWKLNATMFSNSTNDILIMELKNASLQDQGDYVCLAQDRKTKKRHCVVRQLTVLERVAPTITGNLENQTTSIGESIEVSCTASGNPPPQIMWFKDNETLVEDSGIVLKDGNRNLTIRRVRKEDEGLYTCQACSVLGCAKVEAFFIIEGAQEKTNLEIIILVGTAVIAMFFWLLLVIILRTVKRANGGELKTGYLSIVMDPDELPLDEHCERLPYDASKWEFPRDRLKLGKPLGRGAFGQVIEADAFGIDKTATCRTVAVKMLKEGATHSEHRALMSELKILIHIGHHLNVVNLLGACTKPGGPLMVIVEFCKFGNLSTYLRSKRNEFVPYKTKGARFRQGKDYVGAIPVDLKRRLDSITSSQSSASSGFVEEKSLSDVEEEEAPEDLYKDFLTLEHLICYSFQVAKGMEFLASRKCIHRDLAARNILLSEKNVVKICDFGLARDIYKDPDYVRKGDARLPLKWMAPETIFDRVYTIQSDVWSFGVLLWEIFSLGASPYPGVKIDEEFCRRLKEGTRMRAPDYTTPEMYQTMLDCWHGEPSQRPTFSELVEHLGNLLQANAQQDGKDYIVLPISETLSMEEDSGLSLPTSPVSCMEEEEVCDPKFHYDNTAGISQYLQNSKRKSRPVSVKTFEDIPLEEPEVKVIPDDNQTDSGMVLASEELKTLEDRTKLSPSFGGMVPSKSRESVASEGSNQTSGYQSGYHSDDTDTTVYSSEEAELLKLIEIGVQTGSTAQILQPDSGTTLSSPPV

As to `Cc1ncc(NC(=O)CN2CC(C)(C)C2)cc1NC(=O)c1cnn2cc(-c3cnn4c3COCC4)sc12` [Example 476, 2-(6,7-dihydro-4H-pyrazolo[5,1-c][1,4]oxazin-3-yl)-N-(5-(2-(3,3-dimethylazetidin-1-yl)acetamido)-2-methylpyridin-3-yl)pyrazolo[5,1-b]thiazole-7-carboxamide], the IC50 in experiment [1] is 1.7 nM; at VEGFR2, unphosphorylated, greater than 7500 nM.
With `Cc1ncc(C(=O)NCCN2CC3CCC2CC3)cc1NC(=O)c1cnn2cc(-c3cnn4c3OCCC4)sc12` [Example 477, N-(5-((2-(2-azabicyclo[2.2.2]octan-2-yl)ethyl)carbamoyl)-2-methylpyridin-3-yl)-2-(6,7-dihydro-5H-pyrazolo[5,1-b][1,3]oxazin-3-yl)pyrazolo[5,1-b]thiazole-7-carboxamide], the IC50 is 2.3 nM in experiment [1] and greater than 7500 nM against VEGFR2, unphosphorylated.
`Cc1ncc(C(=O)NCCN2CCCC23CCC3)cc1NC(=O)c1cnn2cc(-c3cnn4c3OCCC4)sc12` [Example 478, N-(5-((2-(5-azaspiro[3.4]octan-5-yl)ethyl)carbamoyl)-2-methylpyridin-3-yl)-2-(6,7-dihydro-5H-pyrazolo[5,1-b][1,3]oxazin-3-yl)pyrazolo[5,1-b]thiazole-7-carboxamide]: the IC50 in experiment [1] is 3 nM; against VEGFR2, unphosphorylated, 2560 nM.
`Cc1ncc(C(=O)NCCN2CC(C)(C)C2)cc1NC(=O)c1cnn2cc(-c3cnn4c3OCCC4)sc12` [Example 479, 2-(6,7-dihydro-5H-pyrazolo[5,1-b][1,3]oxazin-3-yl)-N-(5-((2-(3,3-dimethylazetidin-1-yl)ethyl)carbamoyl)-2-methylpyridin-3-yl)pyrazolo[5,1-b]thiazole-7-carboxamide]: the IC50 was 2 nM in experiment [1] and greater than 7500 nM on VEGFR2, unphosphorylated.
As to `Cc1ncc(C(=O)NCCN2CC3CCC2CC3)cc1NC(=O)c1cnn2cc(-c3cnn4c3CCC4)sc12` [Example 480, N-(5-((2-(2-azabicyclo[2.2.2]octan-2-yl)ethyl)carbamoyl)-2-methylpyridin-3-yl)-2-(5,6-dihydro-4H-pyrrolo[1,2-b]pyrazol-3-yl)pyrazolo[5,1-b]thiazole-7-carboxamide], the IC50 in experiment [1] was 2.5 nM; against VEGFR2, unphosphorylated, greater than 7500 nM.
On to `Cc1ncc(C(=O)NCCN2CCCC2(C)C)cc1NC(=O)c1cnn2cc(-c3cnn4c3CCC4)sc12` [Example 481, 2-(5,6-dihydro-4H-pyrrolo[1,2-b]pyrazol-3-yl)-N-(5-((2-(2,2-dimethylpyrrolidin-1-yl)ethyl)carbamoyl)-2-methylpyridin-3-yl)pyrazolo[5,1-b]thiazole-7-carboxamide], for which the IC50 in experiment [1] is 2 nM; on VEGFR2, unphosphorylated, greater than 7500 nM.
As for `Cc1ncc(C(=O)NCCN2CC(C)(C)C2)cc1NC(=O)c1cnn2cc(-c3cnn4c3CCC4)sc12` [Example 482, 2-(5,6-dihydro-4H-pyrrolo[1,2-b]pyrazol-3-yl)-N-(5-((2-(3,3-dimethylazetidin-1-yl)ethyl)carbamoyl)-2-methylpyridin-3-yl)pyrazolo[5,1-b]thiazole-7-carboxamide], the IC50 in experiment [1] was 1.6 nM; against VEGFR2, unphosphorylated it was greater than 7500 nM.

The term IC50 denotes the concentration needed to halve the response being measured.
